Measurements from patent publication US4005213A, “2,5-Substituted-1,3,4-thiadiazoles as fungicides” (Schering Aktiengesellschaft, priority 1968, dated 1977).

What was measured:
Damping-off Fungi = assay: Cotton seed disinfection in normal compost soil (Example 6); type: in vivo; details: 100 mg active ingr. per kg of seed, 15 days, 22°-25° C.
Protocol: Cotton seeds disinfected with 10% formulations were seeded in normal compost soil (Damping-off Fungi), 25 grains per concentration. After a cultivation time of 15 days at 22°-25° C., the number of germinated sound cotton seedlings and their weight as fresh plants were determined.

Rhizoctonia solani [1] = assay: Pea test in soil inoculated with Rhizoctonia solani (Example 3); type: in vivo; details: 3 weeks
From the text: Steamed compost soil was inoculated with mycelium of Rhizoctonia solani. After homogeneous mixture of the products with the infested soil, the products were present in the form of 20% powder preparations, the seeding of 25 grains of marrow peas of the variety Miracle of Kelvedon per concentration was effected without waiting period in clay dishes holding 1 liter of soil. The table lists the number of germinated sound peas, the weight of the fresh plant, and a root evaluation after a cultivation period of 3 weeks at 22°-25° C.

Stemphylium ilicis = assay: Agar test, Stemphylium ilicis (Example 7); type: cell-based; details: 10 ppm in malt extract agar, 5 days at 22° C.; control 100
Protocol: (§1) The fungicidal action of the agents according to the invention was tested in artificial nutrient media against plant-pathogenic fungi in Petri dishes (agar test). The procedure was to sterilize the medium consisting of 2% malt extract and 1.5% agar-agar powder. Before the solidification of the medium, the active substances were added to it, mixing thoroughly, so that the medium received 10 parts of active substance per million (ppm). After the solidification of the medium, the latter was inoculated with a platinum dropper which contained 100 spores each of the fungi to be tested, and after 5 days at 22° C., an evaluation was made by measuring the diameter of the colonies in mm.

Pythium ultimum [2] = assay: Limit concentration of soil-fungicidal effectiveness, Pythium ultimum infested soil, peas (Example 1); type: in vivo; details: Globisporangium ultimum, 20 to 23 days, 22°-25° C., germination at least 90% vs steamed soil
Protocol: (§2) Limit concentrations of the soil-fungicidal effectiveness at homogeneous mixture of the products with the infested soil. Basic condition in the evaluation are a sound root formation without fungus necroses and germination of the seed of at least 90% compared with the result obtained in steamed soil. Per concentration there were seeded 25 grains of peas of the variety "Miracle of Kelvedon" (marrow pea) without a waiting period. the cultivation time in the tests was 20 to 23 days at a temperature of 22°-25° C. Four commercial products were included in the test series.
Pythium ultimum: Steamed compost soil was inoculated with mycelium of Pythium ultimum

Aspergillus niger = assay: Agar test, Aspergillus niger (Example 7); type: cell-based; details: 10 ppm in malt extract agar, 5 days at 22° C.; control 100
Protocol: as §1

[3] = acute oral toxicity in rats; details: rat, in vivo
Rhizoctonia solani [4] = assay: Limit concentration of soil-fungicidal effectiveness, Rhizoctonia solani infested soil, peas (Example 1); type: in vivo; details: 20 to 23 days, 22°-25° C., germination at least 90% vs steamed soil
Protocol: as §2
Rhizoctonia solani: Steamed compost soil was inoculated with mycelium of Rhizoctoniz solani.

Pythium ultimum [5] = assay: Pea test in soil inoculated with Pythium ultimum (Example 2); type: in vivo; set-up: key to Root evaluation (1-4): 4 = white roots, no necroses … 1 = severe necroses, roots rotted; details: for Root evaluation (1-4): 3 weeks; for Number of sound peas after 3 wks.: 25 grains seeded
Protocol: Steamed compost soil was inoculated with mycelium of Pythium ultimum. […] The following table lists the number of germinated sound peas, the weight of the fresh plant, and a root evaluation after a cultivation period of 3 weeks at 22°-25° C.
4 = white roots, without fungus necroses
3 = white roots, slight fungus necroses
2 = brown roots, more intense fungus necroses
1 = severe fungus necroses, roots rotted

Meloidogyne incognita = assay: Nematocidal action against root gall nematodes, cucumber (Example 8); type: in vivo; details: reduction of attack, 30 days
Protocol: The products as 20% powder preparations were homogeneously admixed with a compost soil heavily infested by root gall nematodes. Without a waiting period, 20 cucumber seeds per concentration were seeded. After a cultivation time of 30 days at a temperature of 23°-25° C., the nematocidal action was evaluated by counting the root galls formed in the waterbath. The following table states the reduction of attack in percent. In the control, an average of 90 root galls per seedling had formed.

Pyrenochaeta lycopersici = assay: Control of Pyrenochaeta lycopersici, corky root disease of the tomato, open field (Example 9); type: in vivo; details: for Weight of single tomato (% of untreated): 0 g = 100%; for Tomatoes per plant / Weight of single tomato / Yield per plant: 10% granulate
From the text: Control of Pyrenochaeta lycopersici, corky root disease of the tomato.
On a naturally infested open field area, 2-dichloromethyl-5-methylsulfonyl-1,3,4-thiadiazole was scattered as a 10% granulate formulation and hoed in 20 cm deep. […] After a reaction period of 3 weeks, tomato plants of the variety "Ronald-M" which were 8 weeks old were set out at a distance from each other of 50 × 70 cm. The harvest results indicated in the table are average values of 40 plants per lot and refer to harvested ripe tomatoes.

Pythium ultimum [6] = assay: Fungistatic and fungicidal action on Pythium ultimum of preparations with varying active ingredient percentages (Example 4); type: in vivo; details: for Number of sound peas after 3 wks.: 25 grains seeded
From the text: Comparison of the fungistatic and fungicidal action on Pythium ultimum when using preparations with varying active ingredient percentages on siliceous clay. Steamed compost soil was inoculated with mycelium of Pythium ultimum. After forming a homogeneous mixture of the products with the infested soil, […], the seeding of 25 grains of marrow peas of the variety Miracle of Kelvedon per concentration in clay dishes holding 1 liter of soil followed without a waiting period. In the table is stated the number of germinated sound peas, the weight of the fresh plant, and a root evaluation after a cultivation period of 3 weeks at 22°-25° C.

[7] = system: Colletotrichum gloeosporioides; assay: Agar test, Colletotrichum gloeosporioides (Example 7); type: cell-based; details: 10 ppm in malt extract agar, 5 days at 22° C.; control 100
Protocol: as §1

Botrytis cinerea = assay: Agar test, Botrytis cinerea (Example 7); type: cell-based; details: 10 ppm in malt extract agar, 5 days at 22° C.; control 100
Protocol: as §1

Helminthosporium sativum = assay: Agar test, Helminthosporium sativum (Example 7); type: cell-based; details: 10 ppm in malt extract agar, 5 days at 22° C.; control 100
Protocol: as §1

[8] = 10 mg active ingr. per liter of soil
[9] = 20 mg active ingr. per liter of soil
[10] = 30 mg active ingr. per liter of soil
[11] = 10 g active ingr. per square meter
[12] = 20 g active ingr. per square meter
[13] = 5% formulation, 6 mg active ingr. per liter of soil
[14] = 5% formulation, 10 mg active ingr. per liter of soil
[15] = 10% formulation, 10 mg active ingr. per liter of soil
[16] = 20% formulation, 6 mg active ingr. per liter of soil
[17] = 200 mg active ingr. per liter of soil

For `CS(=O)(=O)c1nnc(C(Cl)(Cl)Cl)s1` [Compound 21, 2-trichloromethyl-5-methylsulfonyl-1,3,4-thiadiazole], the “Sound plants in %” value (Damping-off Fungi) was 100%, the “Root evaluation (1-4)” value (Rhizoctonia solani [1]; [8]) was 4 and the “Root evaluation (1-4)” value (Rhizoctonia solani [1]; [9]) was 4. For the same compound, the “Root evaluation (1-4)” value (Rhizoctonia solani [1]; [10]) was 4, the “diameter of the colonies, Stemphylium ilicis” value (“diameter … Stemphylium ilicis” for short) (Stemphylium ilicis) was 0 mm and the minimal effective concentration (Pythium ultimum [2]) was 40 µg/mL. The “diameter of the colonies, Aspergillus niger” value (“diameter … Aspergillus niger” below) (Aspergillus niger) was 0 mm and the LD50 [3] was 717 mg/kg.

With `C[S+]([O-])c1nnc(C(F)(F)Cl)s1` (centres unmarked) [Compound 55, 2-chlorodifluoromethyl-5-methylsulfinyl-1,3,4-thiadiazole] the minimal effective concentration (Pythium ultimum [2]) was 10 µg/mL and the minimal effective concentration (Rhizoctonia solani [4]) was 10 µg/mL.

Work on `CS(=O)(=O)c1nnc(C(F)(F)Cl)s1` [Compound 54, 2-chlorodifluoromethyl-5-methylsulfonyl-1,3,4-thiadiazole] yielded a minimal effective concentration (Pythium ultimum [2]) of 10 µg/mL and a minimal effective concentration (Rhizoctonia solani [4]) of 20 µg/mL.

For `CS(=O)(=O)c1nnc(C(Cl)Cl)s1` [Compound 17, 2-dichloromethyl-5-methylsulfonyl-1,3,4-thiadiazole], the “Root evaluation (1-4)” value (Pythium ultimum [5]; [8]) was 4, the “Root evaluation (1-4)” value (Pythium ultimum [5]; [9]) was 4 and the “Number of sound peas after 3 wks.” value (Pythium ultimum [5]; [9]) was 24. For the same compound, the “Root evaluation (1-4)” value (Pythium ultimum [5]; [10]) was 4, the “Number of sound peas after 3 wks.” value (Pythium ultimum [5]; [10]) was 24 and the “Nematocidal action in % (Meloidogyne incognita)” value (Meloidogyne incognita; 40 mg active substance per liter of soil) was 90%. The “Nematocidal action in % (Meloidogyne incognita)” value (Meloidogyne incognita; 60 mg active substance per liter of soil) was 94%, the “Sound plants in %” value (Damping-off Fungi) was 100% and the “Root evaluation (1-4)” value (Rhizoctonia solani [1]; [9]) was 4. For the same compound, the “Root evaluation (1-4)” value (Rhizoctonia solani [1]; [10]) was 4, the “diameter … Stemphylium ilicis” value (Stemphylium ilicis) was 0 mm and the minimal effective concentration (Pythium ultimum [2]) was 10 µg/mL. The “diameter … Aspergillus niger” value (Aspergillus niger) was 0 mm, the “Weight of single tomato (% of untreated)” value (Pyrenochaeta lycopersici; [11]) was 110% and the Tomatoes per plant (Pyrenochaeta lycopersici; [11]) was 27. For the same compound, the “Weight of single tomato” value (Pyrenochaeta lycopersici; [11]) was 66 g, the Yield per plant (Pyrenochaeta lycopersici; [11]) was 1774 g and the “Weight of single tomato (% of untreated)” value (Pyrenochaeta lycopersici; [12]) was 130%. For the same compound, the Tomatoes per plant (Pyrenochaeta lycopersici; [12]) was 28, the “Weight of single tomato” value (Pyrenochaeta lycopersici; [12]) was 78 g and the Yield per plant (Pyrenochaeta lycopersici; [12]) was 2209 g. For the same compound, the “Weight of fresh plant” value (Pythium ultimum [6]; [13]) was 9 g, the “Number of sound peas after 3 wks.” value (Pythium ultimum [6]; [13]) was 12 and the “Weight of fresh plant” value (Pythium ultimum [6]; [14]) was 20 g. The “Number of sound peas after 3 wks.” value (Pythium ultimum [6]; [14]) was 24, the “Weight of fresh plant” value (Pythium ultimum [6]; 10% formulation, 6 mg active ingr. per liter of soil) was 15 g and the “Weight of fresh plant” value (Pythium ultimum [6]; [15]) was 24 g. The “Number of sound peas after 3 wks.” value (Pythium ultimum [6]; [15]) was 22, the “Weight of fresh plant” value (Pythium ultimum [6]; [16]) was 17 g and the “Number of sound peas after 3 wks.” value (Pythium ultimum [6]; [16]) was 22. The “Weight of fresh plant” value (Pythium ultimum [6]; 20% formulation, 10 mg active ingr. per liter of soil) was 16 g.

In the case of `S=C([S-])NCCNC(=S)[S-].[Zn+2]` [Zinc ethylene-bis-dithiocarbamate, reference compound], the “Root evaluation (1-4)” value (Pythium ultimum [5]; [17]) is reported as 1, the “Number of sound peas after 3 wks.” value (Pythium ultimum [5]; [17]) is reported as 14 and the “diameter of the colonies, Colletotrichum gloeosporioides” value [7] is reported as 81 mm. For the same compound, the “diameter … Stemphylium ilicis” value (Stemphylium ilicis) was 55 mm, the “diameter … Aspergillus niger” value (Aspergillus niger) was 78 mm and the “diameter of the colonies, Botrytis cinerea” value (Botrytis cinerea) was 36 mm. The “diameter of the colonies, Helminthosporium sativum” value (Helminthosporium sativum) was 50 mm.
